These results are taken from patent US9890185B2, “Urea derivatives useful as kinase inhibitors” (Respivert Limited, priority 2013, dated 2018).

For one data set, the target named is Lck (Homo sapiens (Human), UniProt P06239). As to the kind of experiment: KINOMEscan enzyme binding assay (Lck). To be noted: KINOMEscan technology; read-out: Dissociation Constant, Lck. The method, then:
(§1) Kinase enzyme binding activities of compounds disclosed herein may be determined using a proprietary assay which measures active site-directed competition binding to an immobilized ligand (Fabian, M. A. et al., Nature Biotechnol., 2005, 23:329-336). These assays may be conducted by DiscoverX (formerly Ambit; San Diego, Calif.). The percentage inhibition produced by incubation with a test compound may be calculated relative to the non-inhibited control.

Data set [1] has as its target T1, Syk (Homo sapiens (Human), UniProt P43405). Kind of data set: Syk enzyme inhibition (FRET, Z-LYTE). Type of data set: biochemical. The gist of the method: (§2)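 Enzyme (c-Src 3000 ng/mL, Syk 2000 ng/mL, as added solutions) was preincubated with compound for 2 hr at RT, then FRET peptide and ATP (added solution 800 μM for c-Src, 60 μM for Syk) for 1 hr. Protease development 1 hr; coumarin/fluorescein emission ratio gave % inhibition, IC50 from concentration-response.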

A further data set deals with GSK 3α (Homo sapiens (Human), UniProt P49840). Kind of data set: GSK 3α enzyme inhibition (FRET, Z-LYTE, Method 2). The conditions noted are these: read-out: IC50 Values for Enzyme Inhibition, GSK3α. It counts as biochemical. The gist of the method: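 Human GSK3α (500 ng/mL) preincubated with compound (4, 0.4, 0.04 or 0.004 μg/mL) at RT for 2 h (Method 1) or 105 min (Method 2). Then FRET peptide (8 μM) and ATP (40 μM) added for 1 h, followed by protease development for 1 h. IC50 from the coumarin/fluorescein emission ratio relative to uninhibited control.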
Sequence of GSK 3α (P49840 whole entry): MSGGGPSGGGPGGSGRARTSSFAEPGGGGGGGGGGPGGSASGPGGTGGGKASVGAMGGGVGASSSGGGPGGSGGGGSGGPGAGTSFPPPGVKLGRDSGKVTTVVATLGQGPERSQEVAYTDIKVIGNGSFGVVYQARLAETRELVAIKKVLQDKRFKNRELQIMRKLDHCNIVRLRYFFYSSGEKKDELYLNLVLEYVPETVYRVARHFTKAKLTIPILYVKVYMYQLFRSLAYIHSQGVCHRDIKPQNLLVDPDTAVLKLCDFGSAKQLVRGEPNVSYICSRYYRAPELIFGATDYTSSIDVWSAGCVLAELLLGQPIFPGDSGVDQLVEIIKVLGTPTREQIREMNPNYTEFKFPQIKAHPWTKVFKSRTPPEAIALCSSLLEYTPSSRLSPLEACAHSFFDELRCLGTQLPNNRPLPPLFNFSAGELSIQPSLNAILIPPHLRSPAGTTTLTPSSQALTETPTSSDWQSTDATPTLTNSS

The next data set concerns the target p38 MAPK α (Homo sapiens (Human), UniProt Q16539). As to the kind of experiment: KINOMEscan enzyme binding assay (p38 MAPKα). To be noted: KINOMEscan technology; read-out: Dissociation Constant, p38 MAPK α. The protocol:
as §1

Data set [2] has as its target T1, Syk. As to the kind of experiment: KINOMEscan enzyme binding assay (Syk). To be noted: KINOMEscan technology; read-out: Dissociation Constant, Syk. The protocol:
as §1

The subject of another data set is HT29 cells. As to the kind of experiment: IL-1β-induced IL-8 release in HT29 cells (assay d). Type of data set: cell-based. The conditions noted are these: Homo sapiens, HT-29; IL-1β-stimulated HT29 cells; read-out: IC50 Values for Inhibition of Cytokine Release, HT29 cells IL-8. The method, then: HT29 cells, a human colon adenocarcinoma cell line, are plated in a 96 well plate (24 hrs) and pre-treated with compounds at the desired concentration for 2 hours before addition of 5 ng/mL of IL-1β (Abcam) for 24 hours. Supernatants are harvested for IL-8 quantification by Sandwich ELISA (Duo-set, R&D System). The IC50 is determined from the dose response curve.

The next data set concerns the target c-Src (Homo sapiens (Human), UniProt P12931). Kind of data set: c-Src enzyme inhibition (FRET, Z-LYTE). Type of data set: biochemical. The method in brief: as §2
Data set [3] can be described thus: Solubility in fasted-state simulated colonic fluid (FaSSCoF). It counts as physicochemical. The conditions noted are these: thermodynamic from solid, pH 6.5, 25° C.; for solubility thermodynamic at 24 h: 25 °C, pH 6.5, fassgf or other biorelevant; for solubility at 24 h: fassgf or other biorelevant, read-out: Solubility in the FaSSCoF medium. The protocol:
The solubilities of compounds of the invention in FaSSCoF at pH 6.5 are determined using a modification of a previously-reported procedure (Vertzoni, M., et al. Pharm. Res. 2010, 27, 2187-2196). In place of the bile salt extract employed in the original procedure (which extract is no longer available), the modified procedure uses a mixture of sodium taurochlorate (0.15 g), glycocholic acid (0.15 g), ursodeoxycholic acid (0.05 g), cholic acid (0.05 g), and glycodeoxycholic acid (0.05 g). These five bile acids are ground together with a mortar and pestle to produce a fine white powder that is incorporated into the FaSSCoF, as outlined below.
Tris(hydroxymethyl)aminomethane (Tris; 0.275 g) and maleic acid (0.44 g) are dissolved in water (35 mL) to give a solution whose pH is adjusted to 6.5 by treatment with 0.5M NaOH (ca. 12 mL). The solution is then made up to 50 mL with water. A portion of this Tris/maleate buffer solution (ca. 25 mL) is added to a 0.5 L round-bottomed flask, before being treated with 0.00565 g of the bile acid mixture described above. Solutions of phosphatidylcholine (0.0111 g) in DCM (0.15 mL) and palmitic acid (0.0013 g) in DCM (0.15 mL) are added, then the organic solvent is evaporated off under reduced pressure at 40° C. until a clear solution, with no perceptible DCM odour, is achieved. The volume of the evaporated solution is adjusted to 50 mL by addition of the remainder of Tris/maleate buffer, then BSA (0.115 g) is added, before being dissolved by gentle agitation.
Test compounds are suspended in the pH 6.5 FaSSCoF medium to give a maximum final concentration of ca. 6 mg/mL. The suspensions are equilibrated at 25° C. for 24 h, before being filtered through a glass fibre C filter. The filtrates are then diluted as appropriate for injection and quantification by HPLC with reference to a standard. Different volumes of the standard, diluted and undiluted sample solutions are injected and the solubilities are calculated using the peak areas determined by integration of the peak found at the same retention time as the principal peak in the standard injection.

Where [4] appears, read: Run 1, read-out: pH 6.5 FaSSCoF Solubility Run 1.
The mark [5] stands for this setting: Run 2, read-out: pH 6.5 FaSSCoF Solubility Run 2.

Values after ≈ are worked out from the molar mass of the structure shown. Like-named read-outs stand apart in the source and are kept apart here. Bounds are passed on as bounds.

Sequence of c-Src (P12931 whole entry, looked up): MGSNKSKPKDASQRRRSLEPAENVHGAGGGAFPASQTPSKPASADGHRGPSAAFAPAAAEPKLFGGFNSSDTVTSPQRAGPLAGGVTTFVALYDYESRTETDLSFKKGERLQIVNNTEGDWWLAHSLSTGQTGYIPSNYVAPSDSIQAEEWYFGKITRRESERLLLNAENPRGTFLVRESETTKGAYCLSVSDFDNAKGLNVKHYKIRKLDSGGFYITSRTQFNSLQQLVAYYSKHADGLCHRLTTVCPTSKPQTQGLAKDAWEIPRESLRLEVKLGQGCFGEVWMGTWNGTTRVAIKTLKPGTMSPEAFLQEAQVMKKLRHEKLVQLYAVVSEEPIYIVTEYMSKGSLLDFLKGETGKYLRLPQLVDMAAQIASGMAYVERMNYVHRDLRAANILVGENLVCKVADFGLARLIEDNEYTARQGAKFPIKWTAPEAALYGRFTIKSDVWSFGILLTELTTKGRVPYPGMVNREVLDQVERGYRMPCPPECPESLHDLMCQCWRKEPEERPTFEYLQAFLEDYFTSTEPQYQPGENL
Sequence of p38 MAPK α (Q16539 whole entry): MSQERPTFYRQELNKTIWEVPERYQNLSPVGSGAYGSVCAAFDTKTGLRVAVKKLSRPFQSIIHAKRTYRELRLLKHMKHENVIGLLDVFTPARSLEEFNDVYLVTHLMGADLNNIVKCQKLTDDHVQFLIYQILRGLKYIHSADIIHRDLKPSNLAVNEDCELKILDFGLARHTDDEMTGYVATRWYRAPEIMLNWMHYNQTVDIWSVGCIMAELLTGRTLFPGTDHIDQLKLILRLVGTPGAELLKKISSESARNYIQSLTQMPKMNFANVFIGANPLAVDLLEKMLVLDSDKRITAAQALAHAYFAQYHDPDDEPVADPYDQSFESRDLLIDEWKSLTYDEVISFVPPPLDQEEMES
Sequence of Lck (P06239 whole entry): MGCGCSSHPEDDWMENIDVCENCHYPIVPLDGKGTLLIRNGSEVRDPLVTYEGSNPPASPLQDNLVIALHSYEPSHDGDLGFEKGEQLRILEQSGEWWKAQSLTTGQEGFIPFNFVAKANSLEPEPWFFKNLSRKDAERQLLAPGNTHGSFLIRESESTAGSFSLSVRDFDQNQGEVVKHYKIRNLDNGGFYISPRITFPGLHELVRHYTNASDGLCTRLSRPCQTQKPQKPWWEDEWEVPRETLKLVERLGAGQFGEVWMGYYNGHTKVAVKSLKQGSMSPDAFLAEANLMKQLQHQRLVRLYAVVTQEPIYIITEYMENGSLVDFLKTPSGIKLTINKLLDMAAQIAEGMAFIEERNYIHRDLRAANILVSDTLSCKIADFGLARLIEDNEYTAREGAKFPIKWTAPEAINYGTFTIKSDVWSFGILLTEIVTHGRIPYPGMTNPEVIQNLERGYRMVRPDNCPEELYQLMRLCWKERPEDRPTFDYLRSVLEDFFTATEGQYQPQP

Usually IC50 stands for the concentration needed to halve the response being measured. With `COc1c(NC(=O)Nc2ccc(Oc3ccnc(Nc4ccccc4)c3)c3ccccc23)cc(C(C)(C)C)cc1[S+](C)[O-]` (racemic) [Example 12, 1-(5-(tert-Butyl)-2-methoxy-3-(methylsulfinyl)phenyl)-3-(4-((2-(phenylamino)pyridin-4-yl)oxy)naphthalen-1-yl)urea], the Kd was determined as 3.6 nM at Lck, 11 nM on p38 MAPK α and 18 nM on Syk [2]. For the same compound, the IC50 on Syk [1] was 656 nM; on GSK 3α, over 9900 nM; with HT29 cells, 8.6 nM; against c-Src it was 201 nM.

Take `COCCOCCOCCOc1cc(Nc2cc(Oc3ccc(NC(=O)Nc4cc(C(C)(C)C)cc(S(C)(=O)=O)c4OC)c4ccccc34)ccn2)cc(OC)c1` [Example 9, 1-(5-(tert-Butyl)-2-methoxy-3-(methylsulfonyl)phenyl)-3-(4-((2-((3-methoxy-5-(2-(2-(2-methoxyethoxy)ethoxy)ethoxy)phenyl)amino)pyridin-4-yl)oxy)naphthalen-1-yl)urea]: the results for the Kd at Lck, at p38 MAPK α and on Syk [2] were 8.6 nM, 26 nM and 29 nM, respectively. Besides, the IC50 is 233 nM against Syk [1], over 10700 nM at GSK 3α, 4.3 nM in the data set with HT29 cells and 52 nM at c-Src.

In the case of `COc1cc(Nc2cc(Oc3ccc(NC(=O)Nc4cc(C(C)(C)C)cc(P(C)(C)=O)c4OC)c4ccccc34)ccn2)cc(C(N)=O)c1` [Example 37, 3-((4-((4-(3-(5-(tert-butyl)-3-(dimethylphosphoryl)-2-methoxyphenyl)ureido)-naphthalen-1-yl)oxy)pyridin-2-yl)amino)-5-methoxybenzamide], the Kd at Lck was 1.2 nM; on p38 MAPK α, 4.5 nM; on Syk [2], 5.1 nM. Further, the half-maximal inhibitory concentration (IC50) amounted to 347 nM against Syk [1], 2160 nM on GSK 3α and 32 nM on c-Src.

In general, solubility refers to the concentration that dissolves in the medium under given conditions. For `COc1cc(Nc2cc(Oc3ccc(NC(=O)Nc4cc(C(C)(C)C)cc([S+](C)[O-])c4OC)c4ccccc34)ccn2)ccc1C(=O)NCCN1CCOCC1` (centres unmarked) [Example 72, 4-((4-((4-(3-(5-(tert-Butyl)-2-methoxy-3-(methylsulfinyl)phenyl)ureido)naphthalen-1-yl)oxy)pyridin-2-yl)amino)-2-methoxy-N-(2-morpholinoethyl)benzamide], the IC50 at Syk [1] came to 98 nM; at GSK 3α, 3660 nM; on c-Src, 20 nM. Further, the solubility thermodynamic at 24 h is 10.7 µg/mL (≈ 13.7 µM) in data set [3] (setting [4]) and 11.2 µg/mL (≈ 14.3 µM) in data set [3] (setting [5]). The solubility at 24 h in data set [3] is over 10 µg/mL.

As to `COc1cc(Nc2cc(Oc3ccc(NC(=O)Nc4cc(C(C)(C)C)cc(CC(N)=O)c4OC)c4ccccc34)ccn2)ccc1C(=O)NCC(CO)(CO)CO` [Example 73, 4-((4-((4-(3-(3-(2-Amino-2-oxoethyl)-5-(tert-butyl)-2-methoxyphenyl)ureido)naphthalen-1-yl)oxy)pyridin-2-yl)amino)-N-(3-hydroxy-2,2-bis(hydroxymethyl)propyl)-2-methoxybenzamide], the IC50 on Syk [1] was 120 nM; at GSK 3α, 1980 nM; against c-Src, 29 nM. For the same compound, the solubility thermodynamic at 24 h in data set [3] (setting [4]) is 15.2 µg/mL (≈ 19.5 µM); in data set [3] (setting [5]), 16.6 µg/mL (≈ 21.3 µM). Moreover, the solubility at 24 h in data set [3] was over 10 µg/mL.

Turning to `COCCOCCOCCNC(=O)c1cc(Nc2cc(Oc3ccc(NC(=O)Nc4cc(C(C)(C)C)cc(CNC(=O)CN(C)C)c4OC)c4ccccc34)ccn2)cc(OC)c1` [Example 77, 3-((4-((4-(3-(5-(tert-Butyl)-3-((2-(dimethylamino)acetamido)methyl)-2-methoxyphenyl)ureido)naphthalen-1-yl)oxy)pyridin-2-yl)amino)-5-methoxy-N-(2-(2-(2-methoxyethoxy)ethoxy)ethyl)benzamide], the half-inhibitory concentration (IC50) against Syk [1] was 51 nM; at GSK 3α, 2620 nM; against c-Src it was 17 nM. Moreover, the solubility thermodynamic at 24 h in data set [3] (setting [4]) is 12.3 µg/mL (≈ 14.2 µM); in data set [3] (setting [5]), 13 µg/mL (≈ 15 µM). In data set [3], the solubility at 24 h is over 10 µg/mL.
